Like-named read-outs stand apart in the source and are kept apart here.
What was measured:
Assay type in all cases: in vivo
[1] = system: Diamond back moth (Plutella xylostella); test: B.1 Diamond back moth, cabbage leaf dip; conditions: foliar, read-out: mortality in comparison with untreated controls
Procedure, shortened: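 Cabbage leaves were dipped in compound in 1:1 water:acetone with 0.01% surfactant, air-dried and infested with ten 3rd-instar larvae. Mortality and feeding damage (0–100% scale) were scored 72 h after treatment.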

[2] = system: Green Peach Aphid (Myzus persicae); test: B.2 Green peach aphid, artificial diet, systemic; conditions: 72 h, read-out: mortality in comparison with untreated controls
Procedure, shortened: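 Adult aphids (5-8 per well) fed through a membrane on artificial diet containing compound formulated in 75% water/25% DMSO, with two replications per concentration. Incubation lasted 3 days at about 23±1° C and 50±5% relative humidity. Mortality and fecundity were then assessed visually.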

[3] = system: Tobacco Budworm (Heliothis virescens); test: B.4 Tobacco budworm, insect diet with eggs; conditions: 120 h, read-out: mortality in comparison with untreated controls
Procedure, shortened: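 Wells held insect diet and 15–25 H. virescens eggs; compounds at several concentrations, formulated in 75:25 v/v water:DMSO, were sprayed at 10 μl onto the diet in two replicates. After 5 days at about 28±1 °C and 80±5% relative humidity, egg and larval mortality was scored visually.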

[4] = system: Boll Weevil (Anthonomus grandis); test: B.5 Boll weevil, insect diet with eggs; conditions: 120 h, read-out: mortality in comparison with untreated controls
Procedure, shortened: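 Compounds in 75% water/25% DMSO sprayed at several concentrations (5 μl, two replicates) onto insect diet in 96-well microtiter plates holding 5-10 A. grandis eggs. After 5 days at about 25±1° C and 75±5% relative humidity, egg and larval mortality scored visually.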

[5] = system: Rice Green Leafhopper (Nephotettix virescens); test: B.8 Rice green leafhopper, sprayed rice seedlings; conditions: read-out: mortality in comparison with untreated controls
Procedure, shortened: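 Potted rice seedlings, washed 24 h earlier, were sprayed with 5-6 ml of compound in 1:1 acetone:water plus 0.01% surfactant. Once dry, they were caged and infested with 10 adults, then held at about 28-29° C and 50-60% RH. Percent mortality was scored at 72 h.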

[6] = system: Red Spider Mite (Tetranychus kanzawai); test: B.9 Red spider mite, sprayed cowpea beans; conditions: read-out: mortality in comparison with untreated controls
Procedure, shortened: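 Potted cowpea beans aged 4-5 days were sprayed with compound in 1:1 water:acetone plus 0.01% surfactant, air dried, then infested with ≥30 mites. Kept at about 25-27° C and 50-60% relative humidity; percent mortality scored 72 h after treatment.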

[7] = system: Southern Armyworm (Spodoptera eridania); test: B.10 Southern armyworm, sprayed lima bean plants; conditions: 96 h, read-out: mortality in comparison with untreated controls
Description: B.10 Southern Armyworm (Spodoptera eridania)
The active compounds were formulated in cyclohexanone as a 10,000 ppm solution supplied in tubes. The tubes were inserted into an automated electrostatic sprayer equipped with an atomizing nozzle and they served as stock solutions for which lower dilutions were made in 50% acetone:50% water (v/v). A nonionic surfactant (Kinetic®) was included in the solution at a volume of 0.01% (v/v).
Lima bean plants (variety Sieva) were grown 2 plants to a pot and selected for treatment at the 1st true leaf stage. Test solutions were sprayed onto the foliage by an automated electrostatic plant sprayer equipped with an atomizing spray nozzle. The plants were dried in the sprayer fume hood and then removed from the sprayer. Each pot was placed into perforated plastic bags with a zip closure. About 10 to 11 armyworm larvae were placed into the bag and the bags zipped closed. Test plants were maintained in a growth room at about 250C and about 20-40% relative humidity for 4 days, avoiding direct exposure to fluorescent light (24 hour photoperiod) to prevent trapping of heat inside the bags. Mortality and reduced feeding were assessed 4 days after treatment, compared to untreated control plants.

[8] = system: Neotropical Brown Stink Bug (Euschistus heros); test: B.12 Neotropical brown stink bug, dipped pole bean; conditions: 120 h, read-out: mortality in comparison with untreated controls
Procedure, shortened: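 Contact assay: pole bean sections dipped in compound in 50% acetone/water, air-dried, then exposed to 5 adult Euschistus heros per beaker, eight replicates. Held 5 days at 23±1 °C, 50±5% RH before visual mortality scoring.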

[9] = system: Brown Marmorated Stink Bug (Halyomorpha halys); test: B.13 Brown marmorated stink bug, spray; conditions: 120 h, read-out: mortality in comparison with untreated controls
Description: B.13 Brown Marmorated Stink Bug (Halyomorpha halys)
The active compound was dissolved at the desired concentration in a mixture of 1:1 (vol:vol) distilled water:acetone. Surfactant (Kinetic HV) was added at a rate of 0.01% (vol/vol). The test solution was prepared at the day of use.
Row peanuts and soybean seeds were placed into microwavable plastic cups and inoculated with five adult stage H. halys. Using a hand atomizer, approximately 1 ml solution is sprayed into each cup, insects and food present. A water source was provided (cotton wick with water) Each treatment is replicated 4-fold. Assay arenas are kept at about 25° C. Percent mortality was recorded after 5 days.

[10] = 2500 ppm, egg and larval mortality, 5 days

CN1C(=O)CC(NC(=O)c2ccc(C3=NOC(c4cc(Cl)c(F)c(Cl)c4)(C(F)(F)F)C3)cc2Cl)C1=O (centres unmarked) [Compound I-1-2, 2-Chloro-4-[5-(3,5-dichloro-4-fluoro-phenyl)-5-(trifluoromethyl)-4H-isoxazol-3-yl]-N-(1-methyl-2,5-dioxo-pyrrolidin-3-yl)benzamide]
> 75%: mortality at 300 ppm ([1]; 72 h) | mortality at 2500 ppm [2] | mortality at 2500 ppm [3] | mortality at 2500 ppm [4] | mortality at 300 ppm ([5]; 72 h) | mortality at 300 ppm ([6]; 72 h) | mortality at 10 ppm [7] | mortality at 500 ppm [8] | mortality at 100 ppm [9]

CCN1C(=O)C[C@@H](NC(=O)c2ccc(C3=NOC(c4ccc(F)c(Cl)c4)(C(F)(F)F)C3)cc2Cl)C1=O (some centres unmarked) [Compound I-1-53]
> 75%: mortality at 300 ppm ([1]; 300 ppm, cabbage leaf dip, 3rd instar larvae, 72 hours after treatment) | mortality at 2500 ppm ([2]; 2500 ppm, adult aphids on treated diet, 3 days) | mortality at 2500 ppm [3, 10] | mortality at 2500 ppm [4, 10] | mortality at 300 ppm ([5]; 300 ppm, adults on sprayed rice seedlings, after 72 hours) | mortality at 300 ppm ([6]; 300 ppm, 72 hours after treatment)

CN1C(=O)CC(NC(=O)c2ccc(C3=NOC(c4cc(Cl)c(F)c(Cl)c4)(C(F)(F)F)C3)c3c2CCC3)C1=O (centres unmarked) [Compound I-1-10]
> 75%: mortality at 300 ppm ([1]; 72 h) | mortality at 2500 ppm [2] | mortality at 2500 ppm [3] | mortality at 2500 ppm [4] | mortality at 300 ppm ([5]; 72 h) | mortality at 300 ppm ([6]; 72 h) | mortality at 10 ppm [7] | mortality at 500 ppm [8]

CCN1C(=O)CC(NC(=O)c2ccc(C3=NOC(c4cc(Cl)c(F)c(Cl)c4)(C(F)(F)F)C3)cc2Cl)C1=O (centres unmarked) [Compound I-1-3]
> 75%: mortality at 300 ppm ([1]; 72 h) | mortality at 2500 ppm [2] | mortality at 2500 ppm [3] | mortality at 2500 ppm [4] | mortality at 300 ppm ([5]; 72 h) | mortality at 300 ppm ([6]; 72 h) | mortality at 10 ppm [7] | mortality at 100 ppm [9]

CN1C(=O)C[C@@H](NC(=O)c2ccc(C3=NOC(c4cc(Cl)c(F)c(Cl)c4)(C(F)(F)F)C3)cc2Cl)C1=O (some centres unmarked) [Compound I-1-13]
> 75%: mortality at 300 ppm ([1]; 72 h) | mortality at 2500 ppm [2] | mortality at 2500 ppm [3] | mortality at 2500 ppm [4] | mortality at 300 ppm ([5]; 72 h) | mortality at 300 ppm ([6]; 72 h) | mortality at 10 ppm [7] | mortality at 300 ppm [7] | mortality at 500 ppm [8] | mortality at 100 ppm [9]
